According to paper PMC4861708 (Frontiers in Cell and Developmental Biology, 2016):
Values after ≈ are worked out from the molar mass of the structure shown. Where a SMILES comes first, the peptide text is derived from it. [ ]: non-standard residue; d: D form. The star is where a group is joined. Orn(α-tetramethylguanidino) = CN(C)C(=N[C@@H](CCCN)C(=O)*)N(C)C; Orn = NCCC[C@H](N)C(=O)O

Tests used:
P. aeruginosa elastase = molecular target: T1, P. aeruginosa elastase (Pseudomonas aeruginosa, UniProt P14756); assay: Elastase assay (proteolytic stability); format: in vitro ADME; conditions: after 30 min and all later time points, elastase 12 units/mL, pH 8.3, 37°C
T1 construct: purchased Merck (Darmstadt, Germany)
Procedure: A stock solution of P. aeruginosa elastase (0.26 U/μL) was prepared in Tris-HCl (5 mmol/L, pH 8.3) and stored at −80°C. Peptides (0.5 g/L in 5 mmol/L Tris-HCl, pH 8.3) were incubated with elastase (0.012 U/μL) at 37°C under constant shaking (450 rpm) for 0, 0.5, 2, 4, and 6 h. Aliquots (10.5 μL) were precipitated with a mixture of acetonitrile and ethanol (1:1 v/v) containing 0.1% TFA (21 μL), centrifuged, the supernatant transferred into a new tube, and dried in vacuum. Samples were dissolved in aqueous acetonitrile (3% v/v) containing TFA (0.1% v/v) and analyzed by RP-HPLC using the conditions described above.

[1] = system: P. aeruginosa DSM 1117 (ATCC 27853); format: cell-based, Pseudomonas aeruginosa; conditions: DSM 1117, 24 h
Procedure: (§1) MICs of P. aeruginosa strains DSM 1117 (ATCC 27853), DSM 3227 (ATCC 19429), and DSM 9644 were determined in a microdilution broth assay using 50 or 100% MHB (11.5 and 23 g/L MHB, respectively) whereas MICs of E. coli DSM 1103 (ATCC 25922) and K. pneumoniae DSM 681 (ATCC 10031) were determined in TSB (30 g/L TSB). Peptides (1 g/L in water) were serially two-fold diluted in a 96-well microtiter plate (PS, sterile, flat bottom) in 50 μL of the corresponding medium to final concentrations of 512–4 μg/mL. Bacteria were grown in nutrient broth overnight and diluted to a cell concentration of 1.5 × 10^7 cells/mL in the corresponding medium. Cell densities were determined by using the McFarland standard as reference. An aliquot (50 μL) of the cell culture was added to each well and incubated (37°C, 24 h). The OD595 was determined in a SpectraMax 340PC (Molecular Devices, Sunnyvale, USA). Additionally, MIC values were also determined for high bacteria densities (5 × 10^8 cells/mL) corresponding to the conditions used for TEM, as described above.

[2] = system: E. coli DSM 1103 (ATCC 25922); format: cell-based, Escherichia coli; conditions: DSM 1103, 24 h
Procedure: as §1

P. aeruginosa DSM 1117 = assay: Transmission electron microscopy, morphological changes; format: cell-based, Pseudomonas aeruginosa; conditions: 1 h
Procedure: Peptide-bacteria mixtures were fixed (2% glutaraldehyde, 5 mmol/L CaCl2, 10 mmol/L MgCl2 in 0.1 mol/L sodium cacodylate buffer, pH 7.4) overnight at 4°C. […] Samples were rinsed with distilled water (5 × 10 min), incubated with aqueous uranylacetate (0.5% w/v) for 1 h at 4°C, washed with distilled water (3 × 10 min), and embedded in Epon. The hardened blocks were sectioned (50 nm) on a UCT ultramicrotome (Leica, Vienna, Austria), stained with uranyl acetate and lead citrate on an AC20 system (Leica), and visualized at a Tecnai 12 electron microscope (FEI, Eindhoven, The Netherlands) at 80 kV. Morphological effects were quantified on average for 25 cells per condition.

[3] = system: K. pneumoniae DSM 681 (ATCC 10031); format: cell-based, Klebsiella pneumoniae; conditions: DSM 681, 24 h
Procedure: as §1

T1 sequence (P14756 198-498): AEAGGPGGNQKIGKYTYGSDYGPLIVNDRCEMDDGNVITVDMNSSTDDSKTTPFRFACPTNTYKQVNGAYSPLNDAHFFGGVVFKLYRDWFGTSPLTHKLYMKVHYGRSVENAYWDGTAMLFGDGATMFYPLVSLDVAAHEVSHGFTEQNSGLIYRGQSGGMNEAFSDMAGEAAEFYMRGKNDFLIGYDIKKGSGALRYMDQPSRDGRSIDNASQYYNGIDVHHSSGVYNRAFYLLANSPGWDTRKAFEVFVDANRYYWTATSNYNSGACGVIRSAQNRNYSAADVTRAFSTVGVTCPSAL

With `CC[C@H](C)[C@H](NC(=O)[C@H](CCCN)N=C(N(C)C)N(C)C)C(=O)N[C@@H](CCCN)C(=O)N[C@H](C(=O)N[C@@H](CCCN)C(=O)N[C@@H](CCCNC(=N)N)C(=O)N1CCC[C@H]1C(=O)N[C@H](C(=O)N[C@@H](Cc1ccc(O)cc1)C(=O)N[C@@H](CCCN)C(=O)N1CCC[C@H]1C(=O)N[C@@H](CCCNC(=N)N)C(=O)N1CCC[C@H]1C(=O)N[C@@H](CCCNC(=N)N)C(=O)N1CCC[C@H]1C(=O)N1CCC[C@H]1C(=O)N[C@@H](Cc1c[nH]cn1)C(=O)N1CCC[C@H]1C(=O)N[C@@H](CCCNC(=N)N)C(=O)N[C@@H](CC(C)C)C(=O)O)C(C)C)[C@@H](C)CC` [Api795, gu-O(IO)2RPVYOPRPRPPHPRL-OH] ({Orn(α-tetramethylguanidino)}-I[Orn]I[Orn]RPVY[Orn]PRPRPPHPRL-OH) the “Peptide detected with elastase” value (P. aeruginosa elastase) was 92 ± 4%, the “MIC P. aeruginosa DSM 1117, high inoculum” value [1] was 16 µg/mL (≈ 6.35 µM) and the “MIC E. coli ATCC 25922” value [2] was 8 µg/mL (≈ 3.18 µM). The “MIC E. coli DSM 1103, high inoculum” value [2] was 32 µg/mL (≈ 12.7 µM), the Cells spongy (P. aeruginosa DSM 1117; 4 µg/mL) was 0% and the “DNA/ribosomes relocalization: +++, extremely relocalized” value (“DNA/ribosomes relocalization: +++” below) (P. aeruginosa DSM 1117; 4 µg/mL) was 0%. For the same compound, the “DNA/ribosomes relocalization: ++, relocalized” value (P. aeruginosa DSM 1117; 4 µg/mL) was 23%, the “DNA/ribosomes relocalization: +, starting” value (P. aeruginosa DSM 1117; 4 µg/mL) was 37% and the “DNA/ribosomes relocalization: -, no” value (P. aeruginosa DSM 1117; 4 µg/mL) was 40%. For the same compound, the “Membrane: b, broken” value (P. aeruginosa DSM 1117; 4 µg/mL) was 0%, the “Membrane: i, intact” value (P. aeruginosa DSM 1117; 4 µg/mL) was 100% and the “Membrane: r, ruptured” value (P. aeruginosa DSM 1117; 4 µg/mL) was 0%. The “Ribosome clustering: +++, extremely clustered” value (shortened to “Ribosome clustering: +++”) (P. aeruginosa DSM 1117; 4 µg/mL) was 0%, the “Ribosome clustering: ++, clustered” value (P. aeruginosa DSM 1117; 4 µg/mL) was 0% and the “Ribosome clustering: +, starting” value (P. aeruginosa DSM 1117; 4 µg/mL) was 70%. The “Ribosome clustering: -, no” value (P. aeruginosa DSM 1117; 4 µg/mL) was 30%, the Vesicle release (P. aeruginosa DSM 1117; 4 µg/mL) was 67% and the “dissociated Fragments: ++, long and thin” value (P. aeruginosa DSM 1117; 4 µg/mL) was 3%. The “dissociated Fragments: +, small and thin” value (P. aeruginosa DSM 1117; 4 µg/mL) was 3%, the “dissociated Fragments: -, no” value (P. aeruginosa DSM 1117; 4 µg/mL) was 93% and the “dissociated Fragments: LV, large vesicles” value (from here on “dissociated Fragments: LV”) (P. aeruginosa DSM 1117; 4 µg/mL) was 0%. The Cells spongy (P. aeruginosa DSM 1117; 16 µg/mL) was 0%, the “DNA/ribosomes relocalization: +++” value (P. aeruginosa DSM 1117; 16 µg/mL) was 0% and the “DNA/ribosomes relocalization: ++, relocalized” value (P. aeruginosa DSM 1117; 16 µg/mL) was 10%. For the same compound, the “DNA/ribosomes relocalization: +, starting” value (P. aeruginosa DSM 1117; 16 µg/mL) was 40%, the “DNA/ribosomes relocalization: -, no” value (P. aeruginosa DSM 1117; 16 µg/mL) was 50% and the “Membrane: b, broken” value (P. aeruginosa DSM 1117; 16 µg/mL) was 0%. For the same compound, the “Membrane: i, intact” value (P. aeruginosa DSM 1117; 16 µg/mL) was 100%, the “Membrane: r, ruptured” value (P. aeruginosa DSM 1117; 16 µg/mL) was 0% and the “Ribosome clustering: +++” value (P. aeruginosa DSM 1117; 16 µg/mL) was 0%. For the same compound, the “Ribosome clustering: ++, clustered” value (P. aeruginosa DSM 1117; 16 µg/mL) was 0%, the “Ribosome clustering: +, starting” value (P. aeruginosa DSM 1117; 16 µg/mL) was 30% and the “Ribosome clustering: -, no” value (P. aeruginosa DSM 1117; 16 µg/mL) was 70%. For the same compound, the “dissociated Fragments: ++, long and thin” value (P. aeruginosa DSM 1117; 16 µg/mL) was 0%, the “dissociated Fragments: +, small and thin” value (P. aeruginosa DSM 1117; 16 µg/mL) was 0% and the “dissociated Fragments: -, no” value (P. aeruginosa DSM 1117; 16 µg/mL) was 100%. For the same compound, the “dissociated Fragments: LV” value (P. aeruginosa DSM 1117; 16 µg/mL) was 0%, the Cells spongy (P. aeruginosa DSM 1117; 64 µg/mL) was 0% and the “DNA/ribosomes relocalization: ++, relocalized” value (P. aeruginosa DSM 1117; 64 µg/mL) was 67%. The “DNA/ribosomes relocalization: +, starting” value (P. aeruginosa DSM 1117; 64 µg/mL) was 10%, the “DNA/ribosomes relocalization: -, no” value (P. aeruginosa DSM 1117; 64 µg/mL) was 10% and the “Membrane: b, broken” value (P. aeruginosa DSM 1117; 64 µg/mL) was 10%. The “Membrane: i, intact” value (P. aeruginosa DSM 1117; 64 µg/mL) was 90%, the “Membrane: r, ruptured” value (P. aeruginosa DSM 1117; 64 µg/mL) was 3% and the “Ribosome clustering: +++” value (P. aeruginosa DSM 1117; 64 µg/mL) was 7%. For the same compound, the “Ribosome clustering: ++, clustered” value (P. aeruginosa DSM 1117; 64 µg/mL) was 7%, the “Ribosome clustering: +, starting” value (P. aeruginosa DSM 1117; 64 µg/mL) was 77% and the “Ribosome clustering: -, no” value (P. aeruginosa DSM 1117; 64 µg/mL) was 10%. The Vesicle release (P. aeruginosa DSM 1117; 64 µg/mL) was 50%, the “dissociated Fragments: ++, long and thin” value (P. aeruginosa DSM 1117; 64 µg/mL) was 3% and the “dissociated Fragments: +, small and thin” value (P. aeruginosa DSM 1117; 64 µg/mL) was 0%. For the same compound, the “dissociated Fragments: -, no” value (P. aeruginosa DSM 1117; 64 µg/mL) was 97%, the “dissociated Fragments: LV” value (P. aeruginosa DSM 1117; 64 µg/mL) was 0% and the Cells spongy (P. aeruginosa DSM 1117; 512 µg/mL) was 10%. For the same compound, the “DNA/ribosomes relocalization: +++” value (P. aeruginosa DSM 1117; 512 µg/mL) was 100%, the “DNA/ribosomes relocalization: ++, relocalized” value (P. aeruginosa DSM 1117; 512 µg/mL) was 0% and the “DNA/ribosomes relocalization: +, starting” value (P. aeruginosa DSM 1117; 512 µg/mL) was 0%. The “DNA/ribosomes relocalization: -, no” value (P. aeruginosa DSM 1117; 512 µg/mL) was 0%, the “Membrane: b, broken” value (P. aeruginosa DSM 1117; 512 µg/mL) was 80% and the “Membrane: i, intact” value (P. aeruginosa DSM 1117; 512 µg/mL) was 20%. For the same compound, the “Membrane: r, ruptured” value (P. aeruginosa DSM 1117; 512 µg/mL) was 63%, the “Ribosome clustering: +++” value (P. aeruginosa DSM 1117; 512 µg/mL) was 93% and the “Ribosome clustering: ++, clustered” value (P. aeruginosa DSM 1117; 512 µg/mL) was 7%. The “Ribosome clustering: +, starting” value (P. aeruginosa DSM 1117; 512 µg/mL) was 0%, the “Ribosome clustering: -, no” value (P. aeruginosa DSM 1117; 512 µg/mL) was 0% and the Vesicle release (P. aeruginosa DSM 1117; 512 µg/mL) was 7%. For the same compound, the “dissociated Fragments: +, small and thin” value (P. aeruginosa DSM 1117; 512 µg/mL) was 0%, the “dissociated Fragments: -, no” value (P. aeruginosa DSM 1117; 512 µg/mL) was 87% and the “dissociated Fragments: LV” value (P. aeruginosa DSM 1117; 512 µg/mL) was 0%. For the same compound, the “membranes ruptured, % of the cells” value (P. aeruginosa DSM 1117; 512 µg/mL) was 80%, the “membranes ruptured, % of the cells” value (P. aeruginosa DSM 1117; 4 × MIC) was 10% and the “MIC K. pneumoniae DSM 681” value [3] was 8 µg/mL (≈ 3.18 µM).
